# Biological target: T1, human IBAT (Homo sapiens, UniProt Q12908)
# T1 construct: Bases 599 to 1645 correspond to the complete coding region of human IBAT; expressed in transfected cells
# T1 sequence (Q12908 1-348): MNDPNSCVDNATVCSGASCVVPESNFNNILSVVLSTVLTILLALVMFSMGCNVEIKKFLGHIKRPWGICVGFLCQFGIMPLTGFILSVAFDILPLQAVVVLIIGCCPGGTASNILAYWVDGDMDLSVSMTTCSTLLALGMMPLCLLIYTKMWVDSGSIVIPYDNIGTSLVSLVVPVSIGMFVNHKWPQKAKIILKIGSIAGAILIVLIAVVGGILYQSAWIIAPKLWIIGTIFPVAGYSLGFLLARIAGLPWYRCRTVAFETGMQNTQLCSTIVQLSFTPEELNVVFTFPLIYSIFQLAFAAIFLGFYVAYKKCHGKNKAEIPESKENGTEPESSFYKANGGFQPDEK
# Assay: In vitro IBAT inhibition assay: uptake of [3H]-taurocholic acid into CHO-hIBAT cells
# Type: cell-based
# Settings: taurocholic acid 10 μM, 60 min at room temperature, read-out: IC-50 (human IBAT)
# Source text: Preparation and Procedure for the In Vitro IBAT Inhibition Assay:
# • 1. Cloning of an Expression Vector for Human IBAT
# The cDNA (complementary deoxyribonucleic acid) of human IBAT was cloned by standard methods of molecular biology as described for example in Molecular Cloning: A Laboratory Manual by Joseph Sambrook and David Russell, and introduced into the pcDNA1 vector from Invitrogen. […] Bases 599 to 1645 correspond to the complete coding region of human IBAT. • 2. Preparation of a Recombinant Cell Line with Constitutive Expression of Human IBAT
# The expression vector for human IBAT was introduced by stable transfection into CHO (chinese hamster ovary) cells. […]
# CHO-hIBAT cells were seeded in a concentration of 40 000 cells per well in poly-D-lysine-coated 96-well plates in cell culture medium and cultured for 24 h. […] Finally, 100 μl of scintillation fluid were added to each well, and the radioactivity taken up into the cells was determined in a MicroBeta Scintillation Microplate Reader from Wallac.
# The half-maximum inhibitory effect of the test compound (IC50 value, inhibitory concentration 50) was determined in the following way: • 1. […] This is the measurement in the absence of substance, measured in sodium-containing transport assay buffer. • 2. […] This is the measurement in the absence of substance, measured in sodium-free transport assay buffer. • 3. […]
row,SMILES,IC50 [nM]
1,CCCC[C@]1(CC)CS(=O)(=O)c2ccc(N(C)C)cc2[C@@H](c2cccc(NC(=O)N[C@@H]3[C@@H](OS(=O)(=O)O)[C@H](OCc4ccccc4)[C@@H](OS(=O)(=O)O)[C@H](OCc4ccccc4)[C@H]3OS(=O)(=O)O)c2)[C@H]1O [Example 2],16
2,CCCC[C@]1(CC)CS(=O)(=O)c2ccc(N(C)C)cc2[C@@H](c2cccc(NC(=O)N[C@@H]3[C@@H](O)[C@H](OCc4ccccc4)[C@@H](O)[C@H](OCc4ccccc4)[C@H]3O)c2)[C@H]1O [Example 1],4.2

# Source: patent US7923468B2, “1,4-benzothiepin-1,1-dioxide derivatives which are substituted with cyclohexyl groups, method for producing the same, drugs containing said compounds and use thereof” (Sanofi-Aventis Deutschland GmbH, priority 2006, dated 2011)
